Results taken from patent publication US8841277B2, “Methods for treating non-small cell lung cancer using 5-azacytidine” (Celgene Corporation, priority 2009, dated 2014).
“Also recorded” adds a separate entry of the source.

How the values were obtained:
H1975 cells = assay: Cell cycle distribution (NIM-DAPI), H1975; format: cell-based; conditions: 72-hour treatment, 0.3-10 μM
From the text: (§1) These studies examined the cell cycle distribution of NSCLC cells treated with AZA or DAC using NIM-DAPI analysis.
(§2) For cell cycle distribution, cells were stained with the NIM-DAPI reagent (Beckman Coulter, Inc.; Fullerton, Calif.). For measurement of early- and late-apoptotic cell populations, cells were stained with AnnexinV-FITC and 7-AAD reagents (Beckman Coulter, Inc.). Samples were processed according to manufacturer's instructions and analyzed on a Cell Lab Quanta MPL flow cytometer (Beckman Coulter, Inc.). […] Data were also collected for untreated cells as control.

H1299 cells [1] = assay: Cell viability (CyQuant assay), H1299; format: cell-based; conditions: 72 hours; for HillSlope / LogIC50 / IC50: H1299 viability, best-fit value; for EC50 / IC50: Homo sapiens, NCI-H1299; for EC50: H1299, read-out: EC50 of effect on viability
Method: (§3) Certain NSCLC cell lines (H460, H1299, A549, and H1975) were purchased from American Type Culture Collection (ATCC; Manassas, Va.). The H23NSCLC cell line was obtained from the National Cancer Institute (NCI; Bethesda, Md.). Cell lines were cultured in their respective media, as recommended by ATCC and NCI. AZA was manufactured at Aptuit (Greenwich, Conn.) for Celgene (Summit, N.J.), while DAC was purchased from Sigma-Aldrich (St. Louis, Mo.). In all experiments, cells were seeded 24 hours before drug treatment and incubated at 37° C./5% CO2, For cell viability assays, H460, H1299, A549, H23, and H1975 cells were seeded in triplicate at 1×10^3, 1×10^3, 1×10^3, 4×10^3, and 4×10^3 cells per well, respectively, in 96-well plates, using 200 μL of medium per well. Fresh drug was added every 24 hours by replacing medium with drug-containing medium. For all other assays, cells were seeded at 0.6-1.2×10^5 cells per well, in 6-well plates, using 4 mL of medium per well, with fresh drug added directly to the medium every 24 hours.
(§4) Cell viability was assessed using the CyQuant assay (Life Technologies Corporation; Carlsbad, Calif.). Fluorescence was measured with a spectrophotometer (Molecular Devices; Sunnyvale, Calif.), and EC50 values were calculated in Prism® version 5.01 (GraphPad Software, Inc.; La Jolla, Calif.), using results from three independent experiments.
(§5) The six data sets represent calculations of EC50 values from raw data using Prism®. The standard deviation among the three independent experiments was determined at each drug concentration. For some of the cell lines, Prism® was not able to calculate the EC50 for DAC. For those curves that an EC50 was available, the SE (Std. Error) was acceptable (SE of the logEC50 should be less than 0.5), meaning that the standard errors were not too large. The 95% Confidence Intervals for the EC50 were considered as a measure of error.

H460 cells [2] = assay: Cell cycle distribution (NIM-DAPI), H460; format: cell-based
From the text: as §1, §2

H23 cells = assay: Cell viability (CyQuant assay), H23; format: cell-based; conditions: 72 hours; for HillSlope / LogIC50 / IC50: H23 viability, best-fit value; for EC50 / IC50: Homo sapiens, NCI-H23; for EC50: H23, read-out: EC50 of effect on viability
Method: as §3, §4, §5

H1299 cells [3] = assay: Apoptosis (AnnexinV-FITC/7-AAD), H1299; format: cell-based; conditions: 0.3-10 μM
From the text: as §2

A549 cells [4] = assay: Cell viability (CyQuant assay), A549; format: cell-based; conditions: 72 hours; for HillSlope / LogIC50 / IC50: A549 viability, best-fit value; for LogIC50: log(inhibitor) vs. normalized response -- Variable slope; for EC50 / IC50: Homo sapiens; for EC50: A549, read-out: EC50 of effect on viability
Method: as §3, §4, §5

H460 cells [5] = assay: Western analysis of DNA damage and apoptosis markers, H460; format: cell-based; conditions: for Induction of Histone H2AX phosphorylation / Induction of PARP cleavage: 0.3-10 μM; for Induction of Histone H2AX phosphorylation: 24 h, 48 h, up to 72 hour
Method: These studies also examined apoptosis using an assay for PARP cleavage. Cells studied included H460, A549, and H1299 cells.
(§6) For western analyses of protein levels, cells were washed with PBS and lysed with RIPA buffer (Cell Signaling Technology, Inc.; Danvers, Mass.) containing 350 mM NaCl and 0.1% SDS. Cell lysates were sonicated with two 5-second bursts under low amplitude (20%) using the Digital Sonic Dismembrator (Thermo Fisher Scientific, Inc.; Waltham, Mass.). Proteins were separated on 4-12% Bis-Tris NuPAGE gels (Life Technologies Corporation) and transferred to nitrocellulose membranes. DNMT1, phos-Histone-H2AX(Ser139), total Histone-H2AX, cleaved-PARP, p21, p53, and alpha-tubulin were detected using the Li-Cor Odyssey imaging system (Li-Cor Biotechnology; Lincoln, Nebr.), following incubation with the appropriate primary and secondary antibodies. The phos-Histone-H2AX(Ser139), cleaved-PARP, and p21 antibodies were from Cell Signaling Technology, Inc. The p53 and total Histone-H2AX (C-20) antibodies were from Santa Cruz Biotechnology, Inc. (Santa Cruz, Calif.). The alpha-tubulin and DNMT1 antibodies were purchased from EMD Chemicals, Inc. (Gibbstown, N.J.) and Abcam, Inc. (Cambridge, Mass.), respectively. The goat anti-Rabbit IRDye 680, goat anti-Mouse IRDye 800CW, and donkey anti-Goat IRDye 800CW secondary antibodies were from Li-Cor Biotechnology.

DNMT1 [6] = assay: DNMT1 protein depletion, H1299; format: cell-based; conditions: for DNMT1 protein levels: dose range
Method: as §6
(§7) Reduced DNMT1 levels were detected in these cell lines as early as 4 hours after drug treatment (FIG. 17).

A549 cells [7] = assay: Cell cycle distribution (NIM-DAPI), A549; format: cell-based
From the text: as §1, §2

DNMT1 [8] = assay: DNMT1 protein depletion, A549; format: cell-based; conditions: for DNMT1 protein levels: dose range
Method: as §6, §7

MDS, AML, CML, ALL, NHL = conditions: e.g. treatment of MDS, Aparicio et al. 2002; cited from earlier work
H1299 cells [9] = assay: Cell cycle distribution (NIM-DAPI), H1299; format: cell-based
From the text: as §1, §2

DNMT1 [10] = assay: DNMT1 protein depletion, H23; format: cell-based; conditions: H23 cell line
Method: as §7

## Nc1ncn([C@H]2C[C@H](O)[C@@H](CO)O2)c(=O)n1 [DAC, 5-aza-2′-deoxycytidine]
H1975 cells
  Cell cycle distribution (NIM DAPI): slight increases in G2/M and Sub-G1
H1299 cells [1]
  HillSlope: −0.4536
  LogIC50: 0.7153
  EC50: 5.2 µM
  IC50: 5.19 µM
H460 cells [2]; 30-hour treatment, 0.3-10 μM
  Cell cycle distribution (NIM DAPI): induced accumulation of cells in Sub-G1
H460 cells [2]; 60-hour treatment, 0.3-10 μM
  Cell cycle distribution (NIM DAPI): slight increase in Sub-G1
H460 cells [2]; summary of studies
  Cell cycle distribution (NIM DAPI): induced accumulation of cells in Sub-G1
H23 cells
  HillSlope: −0.3790
  LogIC50: 1.268
  EC50: 18.5 µM
  IC50: 18.5 µM
H1299 cells [3]; 48-hour treatment
  Early- and late-apoptotic cell populations (AnnexinV/7-AAD): very slight increase in these cell populations
H1299 cells [3]; 72-hour treatment
  Early- and late-apoptotic cell populations (AnnexinV/7-AAD): very slight increase in these cell populations
A549 cells [4]
  HillSlope: −0.4617
  LogIC50: 1.556
  EC50: > 25 µM
  IC50: 35.9 µM
H460 cells [5]
  Induction of Histone H2AX phosphorylation: did not have any effect
H460 cells [5]; 24 h and 48 h
  Induction of PARP cleavage: did not have any effect
H460 cells [5]; 24 h and 48 h, dose-dependent
  p21 expression: induce
  p53 expression: induce
DNMT1 [6]; 0.3-10 μM, 48 h (Example 5)
  DNMT1 depletion: able to cause DNMT1 depletion
DNMT1 [6]; 20 hours
  Relative potency in reducing DNMT1 levels: more potent than AZA
  DNMT1 protein levels: significantly reduced
A549 cells [7]; 48-hour treatment, 0.3-10 μM
  Cell cycle distribution (NIM DAPI): induced an increase of cells in G2/M
A549 cells [7]; 72-hour treatment, 0.3-10 μM
  Cell cycle distribution (NIM DAPI): induced an increase of cells in G2/M
A549 cells [7]; summary of studies
  Cell cycle distribution (NIM DAPI): induced an increase of cells in G2/M
DNMT1 [8]; 0.3-10 μM, 24 h and 48 h (Example 5)
  DNMT1 depletion: able to cause DNMT1 depletion
DNMT1 [8]; 20 hours
  Relative potency in reducing DNMT1 levels: more potent than AZA
  DNMT1 protein levels: significantly reduced
DNMT1 [8]; 20 hours, lowest concentration tested
  Concentration of maximal reduction of DNMT1 levels: 0.05 µM
MDS, AML, CML, ALL, NHL
  Anti-tumor activity in clinical trials: significant anti-tumor activity
H1299 cells [9]; 48-hour treatment, 0.3-10 μM
  Cell cycle distribution (NIM DAPI): induced accumulation of cells in G2/M
H1299 cells [9]; 72-hour treatment, 0.3-10 μM
  Cell cycle distribution (NIM DAPI): induced accumulation of cells in G2/M and Sub-G1; also recorded: induced accumulation of cells in Sub-G1 while DAC also caused an increase of cells in G2/M
H1299 cells [9]; summary of studies
  Cell cycle distribution (NIM DAPI): induced accumulation of cells in Sub-G1 while DAC also caused an increase of cells in G2/M
DNMT1 [10]
  DNMT1 depletion: time- and dose-dependent depletion

## Nc1ncn([C@@H]2O[C@H](CO)[C@@H](O)[C@H]2O)c(=O)n1 [AZA, 4-amino-1-β-D-ribofuranosyl-1,3,5-triazin-2(1H)-one]
H1975 cells
  Cell cycle distribution (NIM DAPI): decrease of cells in G0/G1 and accumulation of cells in G2/M and Sub-G1
H1299 cells [1]
  HillSlope: −1.138
  LogIC50: 0.7095
  EC50: 5.1 µM
  IC50: 5.12 µM
H460 cells [2]; 30-hour treatment, 0.3-10 μM
  Cell cycle distribution (NIM DAPI): induced accumulation of cells in Sub-G1
H460 cells [2]; 60-hour treatment, 0.3-10 μM
  Cell cycle distribution (NIM DAPI): decrease of cells in G0/G1 with a concomitant increase of cells in Sub-01
H460 cells [2]; summary of studies
  Cell cycle distribution (NIM DAPI): induced accumulation of cells in Sub-G1
H23 cells
  HillSlope: −1.054
  LogIC50: 1.005
  EC50: 10.1 µM
  IC50: 10.1 µM
H1299 cells [3]; 48-hour treatment
  Early- and late-apoptotic cell populations (AnnexinV/7-AAD): dramatic increase in early-apoptotic (AnnexinV^+ 7-AAD^−) and late-apoptotic (AnnexinV^+ 7-AAD^+) cells
H1299 cells [3]; 72-hour treatment
  Early- and late-apoptotic cell populations (AnnexinV/7-AAD): dramatic increase in early-apoptotic (AnnexinV^+ 7-AAD^−) and late-apoptotic (AnnexinV^+ 7-AAD^+) cells
A549 cells [4]
  HillSlope: −1.108
  LogIC50: 0.8033
  EC50: 6.4 µM
  IC50: 6.36 µM
H460 cells [5]
  Concentrations affecting Histone H2AX phosphorylation and PARP cleavage: above 1 μM
  Induction of Histone H2AX phosphorylation: induced
H460 cells [5]; 24 h and 48 h
  Induction of PARP cleavage: induced
DNMT1 [6]; 20 hours
  DNMT1 protein levels: significantly reduced
A549 cells [7]; 48-hour treatment, 0.3-10 μM
  Cell cycle distribution (NIM DAPI): induced accumulation of cells in G2/M and Sub-G1
A549 cells [7]; 72-hour treatment, 0.3-10 μM
  Cell cycle distribution (NIM DAPI): induced accumulation of cells in G2/M and Sub-G1
A549 cells [7]; summary of studies
  Cell cycle distribution (NIM DAPI): induced accumulation of cells in G2/M and Sub-G1
DNMT1 [8]; 20 hours
  DNMT1 protein levels: significantly reduced
MDS, AML, CML, ALL, NHL
  Anti-tumor activity in clinical trials: significant anti-tumor activity
H1299 cells [9]; 72-hour treatment, 0.3-10 μM
  Cell cycle distribution (NIM DAPI): induced accumulation of cells in G2/M and Sub-G1
H1299 cells [9]; summary of studies
  Cell cycle distribution (NIM DAPI): induced accumulation of cells in Sub-G1
DNMT1 [10]
  DNMT1 depletion: time- and dose-dependent depletion
